This is an account of results in patent publication US20100240767A1, “Melanogenesis inhibitiuon by 3,5-dimethoxy-4'-hydroxystilbenes and cosmeceutical compositions thereof” (priority 2009, published 2010).

Assay [1] deals with mushroom tyrosinase. Put plainly: mushroom tyrosinase inhibitory activity. In kind it is biochemical. The following applies: 400 U/ml mushroom tyrosinase, 3.53 mM L-tyrosine substrate, absorbance 492 nm at 10th minute. On the procedure:
The mushroom tyrosinase inhibitory activity of 3,5-dimethoxy-4′-hydroxystilbene was studied in a micro plate by incubating varying concentrations of the sample with 400 U/ml of mushroom tyrosinase and then by the addition of 3.53 mM of L-tyrosine substrate. The absorbance at the 10th minute of the reaction was read in a Fluostar Optima micro plate reader at 492 nm.

For assay [2], the system named is B16F1 mouse melanoma cell line. Put plainly: melanogenesis inhibition in MSH-induced B16F1 mouse melanoma cell line. It is filed as cell-based. The protocol:
3,5-dimethoxy-4′-hydroxystilbene was studied for melanogenesis inhibition in B16F1 mouse melanoma cell line. B16F1 cells were induced with 0.5 nM MSH (Melanocyte stimulating hormone) and then treated with varying concentrations of the sample. Sample treatment was given thrice after every 72 hrs. On the 9th day of treatment, the melanin from the cells was extracted with 1N NaOH and the absorbance was read at 405 nm in a Fluostar Optima micro plate reader.

The test system of assay [3] is Swiss 3T3 mouse fibroblast cells. Nature of the assay: UV protection in Swiss 3T3 mouse fibroblast cells (SRB viability). In kind it is cell-based. The following applies: UV A (0.5 J/cm2) and UV B (0.05 J/cm2), 72 hours incubation, SRB staining. On the procedure:
3,5-dimethoxy-4′-hydroxystilbene was studied for UV protection in Swiss 3T3 mouse fibroblast cells. Swiss 3T3 fibroblast cell monolayers were exposed to UV A (0.5 J/cm2) and UV B (0.05 J/cm2) in the presence and absence of sample treatment at varying concentrations. After UV exposure, the cells were incubated in CO2 incubator for 72 hours and the cell viability was determined by SRB (Sulphorhodomine B) dye staining. The UV protection is determined as the enhanced percentage of viable sample treated cells as compared to the untreated cells after UV exposure.

Converted amounts (≈) assume the structure as drawn.

The term IC50 denotes the concentration at which inhibition is half-maximal. A low value points to greater potency in that assay. Turning to `COc1cc(/C=C/c2ccc(O)cc2)cc(OC)c1` [3,5-dimethoxy-4′-hydroxystilbene], the “inhibition of mushroom tyrosinase IC50” value in assay [1] turned out to be 7 µg/mL. This molecule also displayed an IC50 in assay [2] (Mus musculus, B16-F1, B16F1 cells induced with 0.5 nM MSH, treated thrice every 72 hrs, melanin read at 405 nm on 9th day) of 0.5 µg/mL (≈ 1.95 µM). Moreover, the “melanogenesis inhibition potential relative to Glabridin” value in assay [2] (times higher potential than Glabridin, B16F1 cells) is given as “about 6 times”. Also, in assay [3], the “UV protection (enhanced percentage of viable treated cells as compared to the untreated cells after UV exposure)” value was found to be 32%.
